Test results published in patent US8912338B2, “Pesticidal compositions” (Dow AgroSciences LLC, priority 2010, dated 2014).

Columns and labels:
[1] = test system: Sweetpotato Whitefly (Bemisia tabaci); assay: Insecticidal test for sweetpotato whitefly in foliar spray assay; assay type: in vivo; settings: 200 ppm foliar spray on cotton plants infested with eggs, live nymphs counted after 8-9 days, Abbott's corrected % control, read-out: BEMITA % Ctrl @ 200 ppm
Method: Cotton plants were used as test substrate and were grown in 3-inch pots and pruned until only 1 small (3-5 cm) true leaf remained. The plants were then placed in a room with whitefly ([…]) adults and allowed to be infested with eggs. After a 2-3 day egg-laying period, plants were taken from the adult whitefly room and the adults were removed from the leaves using compressed air delivered through a hand-held Devilbiss sprayer (23 psi). Plants infested with eggs (100-300 eggs per plant) were placed in a controlled-environment room for 5-6 days at 82° F. and 50% RH until approximately 50% egg hatch. Four cotton plants (4 replicates) were used for each treatment. Compounds (2 mg) were dissolved in 1 mL of acetone solvent, forming stock solutions of 2000 ppm. The stock solutions were diluted 10× with 0.025% Tween 20 in H2O to obtain the test solution of 200 ppm. A hand-held Devilbiss sprayer was used for spraying a solution to both sides of cotton leaf until runoff. Reference plants (solvent check) were sprayed with the diluent only. Treated plants were held in a holding room for 8-9 days at approximately 82° F. and 50% RH prior to grading. Evaluation was conducted by counting the number of live nymphs per plant under a microscope. Insecticidal activity data presented in Table 3 were generated by using Abbott's correction formula: Corrected%Control=100*(X-Y)/X • where X=No. of live nymphs on solvent check plants • Y=No. of live nymphs on treated plants […]

[2] = test system: Green Peach Aphid (Myzus persicae); assay: Insecticidal test for green peach aphid in foliar spray assay; assay type: in vivo; settings: 72 h, 200 ppm foliar spray on cabbage seedlings, live aphids counted after three days, Abbott's corrected % control, read-out: MYZUPE % Ctrl @ 200 ppm
Method: Certain molecules disclosed in this document were tested against MYZUPE using procedures described in the following example. In the reporting of the results, the “MYZUPE, APHIGO and BEMITA Rating Table” was used (See Table Section).
Cabbage seedlings grown in 3-inch pots, with 2-3 small (3-5 cm) true leaves, were used as test substrate. The seedlings were infested with 20-50 green peach aphids (wingless adult and nymph stage) one day prior to chemical application. Four pots with individual seedlings were used for each treatment. Compounds (2 mg) were dissolved in 2 mL of acetone/methanol (1:1) solvent, forming stock solutions of 1000 ppm. The stock solutions were diluted 5× with 0.025% Tween 20 in H2O to obtain the test solution at 200 ppm. A hand-held Devilbiss sprayer was used for spraying a solution to both sides of cabbage leaves until runoff. Reference plants (solvent check) were sprayed with the diluent only. Treated plants were held in a holding room for three days at approximately 25° C. and 40% relative humidity (RH) prior to grading. Evaluation was conducted by counting the number of live aphids per plant under a microscope. Insecticidal activity data presented in Table 3 were generated by using Abbott's correction formula: Corrected%Control=100*(X−Y)/X • where X=No. of live aphids on solvent check plants • Y=No. of live aphids on treated plants

[3] = test system: Cotton Aphid (Aphis gossypii); assay: Insecticidal test for cotton aphid in a foliar spray assay; assay type: in vivo; settings: 72 h, 200 ppm foliar spray on squash or cotton seedlings, live aphids counted after three days, Abbott's corrected % control, read-out: APHIGO % Ctrl @ 200 ppm
Method: Squash or cotton seedlings with fully expanded cotyledon leaves were trimmed to one cotyledon per plant and infested with wingless adult and nymph stage cotton aphid (APHIGO) one day prior to chemical application. Each plant was examined before chemical application to ensure uniform infestation (ca. 30-70 aphids per plant). Compounds (2 mg) were dissolved in 2 mL of acetone/methanol (1:1) solvent, forming stock solutions of 1000 ppm. The stock solutions were diluted 5× with 0.025% Tween 20 in H2O to obtain a solution at 200 ppm. A hand-held Devilbiss aspirator type sprayer was used to apply the spray solutions until runoff to both sides of the squash cotyledon leaves. Four plants (4 replications) were used for each concentration of each compound. Reference plants (solvent check) were sprayed with the diluent only. Treated plants were held in a holding room for three days at approximately 25° C. and 40% RH before the number of live cotton aphids on each plant was recorded. Insecticidal activity data presented in Table 3 were generated by using Abbott's correction formula: Corrected%Control=100*(X−Y)/X • where X=No. of live aphids on solvent check plants • Y=No. of live aphids on treated plants

| Structure (SMILES) | melting point [°C] | inhibition at 200 ppm [1] [%] | inhibition at 200 ppm [2] [%] | inhibition at 200 ppm [3] [%] |
| --- | --- | --- | --- | --- |
| CC(C)SCCC(=O)N(C)c1nnc(-c2cccnc2)s1 [Compound 4] | 100 to 105 | 0 to 80 | 80 to 100 | 80 to 100 |
| CCOC(=O)CCC(=O)N(C)c1nnc(-c2cccnc2)s1 [Compound 12] | 137 to 139 | 0 to 80 | 0 to 80 | 80 to 100 |
| CN(C(=O)C1(CS(C)(=O)=O)CC1)c1nnc(-c2cccnc2)s1 [Compound 46] | 208 to 212 | 0 to 80 |  | 80 to 100 |
| CN(C(=O)CCS(C)(=O)=O)c1nnc(-c2cccnc2)s1 [Compound 20, N-methyl-3-(methylsulfonyl)-N-(5-(pyridin-3-yl)-1,3,4-thiadiazol-2-yl)propanamide] | 199 to 201 | 0 to 80 | 80 to 100 | 80 to 100 |
| CSCCC(=O)N(C)c1nnc(-c2cccnc2)s1 [Compound 1] | 99 to 101 | 0 to 80 | 80 to 100 | 80 to 100 |
| CSCCCC(=O)N(C)c1nnc(-c2cccnc2)s1 [Compound 6] | 93 to 95 | 0 to 80 | 80 to 100 | 80 to 100 |
| CCN(C(=O)CCSC)c1nnc(-c2cccnc2)s1 [Compound 9] | 116 to 120 | 0 to 80 | 80 to 100 | 80 to 100 |
| CN(C(=O)CCSCc1ccccc1)c1nnc(-c2cccnc2)s1 [Compound 11] | 116 to 118 | 0 to 80 | 0 to 80 | 0 to 80 |
| CN(C(=O)CC[S+](C)[O-])c1nnc(-c2cccnc2)s1 (stereo not shown) [Compound 18, N-methyl-3-(methylsulfinyl)-N-(5-(pyridin-3-yl)-1,3,4-thiadiazol-2-yl)propanamide] | 138 to 140 | 0 to 80 | 80 to 100 | 80 to 100 |
| CN(C(=O)CCNC(=O)OC(C)(C)C)c1nnc(-c2cccnc2)s1 [Compound 38] | 41 to 48 | 0 to 80 | 80 to 100 | 80 to 100 |
| CN(C(=O)CCSCCc1ccccc1)c1nnc(-c2cccnc2)s1 [Compound 5] | 105 to 108 | 0 to 80 | 0 to 80 | 0 to 80 |
| CN(C(=O)C(C)(C)CS(C)(=O)=NC#N)c1nnc(-c2cccnc2)s1 (stereo not shown) [Compound 42, N-2,2-trimethyl-3-(methyl-N-cyano-sulfoximinyl)-N-(5-(pyridin-3-yl)-1,3,4-thiadiazol-2-yl)propanamide] |  | 0 to 80 | 80 to 100 | 0 to 80 |
| CCSC(C)CC(=O)N(C)c1nnc(-c2cccnc2)s1 (stereo not shown) [Compound 13] |  | 0 to 80 | 80 to 100 | 80 to 100 |
| CN(C(=O)C(C)(C)C[S+](C)[O-])c1nnc(-c2cccnc2)s1 (stereo not shown) [Compound 32] |  | 80 to 100 | 80 to 100 | 80 to 100 |
| CCC(CC)(CSC)C(=O)N(C)c1nnc(-c2cccnc2)s1 [Compound 53] |  | 0 to 80 | 0 to 80 | 80 to 100 |

The next lines start with results.

| melting point [°C] | Structure (SMILES) | inhibition at 200 ppm [1] [%] | inhibition at 200 ppm [2] [%] | inhibition at 200 ppm [3] [%] |
| --- | --- | --- | --- | --- |
| 150 to 152 | CSCCOC(=S)N(C)c1nnc(-c2cncc(F)c2)s1 [Compound 85, [5-(5-fluoro-pyridin-3-yl)-[1,3,4]thiadiazol-2-yl]-methyl-thiocarbamic acid 2-methylsulfanyl-ethyl ester] | 0 to 80 | 0 to 80 |  |
| 152 to 154 | COC(=O)CCC(=O)N(C)c1nnc(-c2cccnc2)s1 [Compound 56, methyl 4-(methyl-(5-(pyridin-3-yl)-1,3,4-thiadiazol-2-yl)amino)-4-oxobutanoate] | < 0 | 0 to 80 | 80 to 100 |
| 104 to 106 | CSCCOC(=O)N(C)c1nnc(-c2cncc(F)c2)s1 [Compound 78, [5-(5-fluoropyridin-3-yl)-[1,3,4]thiadiazol-2-yl]-methylcarbamic acid 2-methylsulfanyl-ethyl ester] | 80 to 100 | 80 to 100 |  |
| 90 to 93 | CSCC(C)(C)C(=O)OCC(C)(C)C(=O)N(C)c1nnc(-c2cncc(F)c2)s1 [Compound 91] | 80 to 100 | 80 to 100 |  |
| 114 to 121 | CO/N=C(\C)CCC(=O)N(C)c1nnc(-c2cccnc2)s1 [Compound 48, 4-[(E)-methoxyimino]-pentanoic acid methyl-(5-pyridin-3-yl-[1,3,4]thiadiazol-2-yl)-amide] | 0 to 80 | 80 to 100 | 80 to 100 |
| 118 to 121 | COCCNC(=S)N(C)c1nnc(-c2cccnc2)s1 [Compound 95] | 0 to 80 | 80 to 100 |  |
| 109 to 111 | CSCC(C)(C#N)C(=O)N(C)c1nnc(-c2cncc(F)c2)s1 (stereo not shown) [Compound 88] | 0 to 80 | 80 to 100 |  |
| 126 to 128 | CSCCOC(=O)N(C)c1nnc(-c2cccnc2)s1 [Compound 50, 2-(Methylthio)ethyl methyl(5-(pyridin-3-yl)-1,3,4-thiadiazol-2-yl)carbamate] | 0 to 80 | 80 to 100 | 80 to 100 |
| 145 to 147 | CN(C(=O)CSCc1ccccc1)c1nnc(-c2cncc(F)c2)s1 [Compound 84] | 0 to 80 | 0 to 80 |  |
| 100 to 104 | CSCCNC(=O)N(C)c1nnc(-c2cncc(F)c2)s1 [Compound 79, 1-[5-(5-fluoro-pyridin-3-yl)-[1,3,4]thiadiazol-2-yl]-1-methyl-3-(2-methylsulfanyl-ethyl)-urea] | 0 to 80 | 80 to 100 |  |
| 176 | CSCC(C)C(=O)Nc1nnc(-c2cccnc2)s1 (stereo not shown) [Compound 92] | 0 to 80 | 0 to 80 |  |
| 43 to 46 | C=CCSCC(C)C(=O)N(C)c1nnc(-c2cccnc2)s1 (stereo not shown) [Compound 94] | 80 to 100 | 80 to 100 |  |
| 154 to 157 | CSCC(C)(CN)C(=O)N(C)c1nnc(-c2cncc(F)c2)s1 (stereo not shown) [Compound 89, 2-(aminomethyl)-N-[5-(5-fluoro-3-pyridyl)-1,3,4-thiadiazol-2-yl]-N,2-dimethyl-3-methylsulfanyl-propanamide] | 0 to 80 | 0 to 80 |  |
| 137 to 140 | CCOC(=S)N(C)c1nnc(-c2cncc(F)c2)s1 [Compound 80, [5-(5-fluoro-pyridin-3-yl)-[1,3,4]thiadiazol-2-yl]-methyl-thiocarbamic acid ethyl ester] | 0 to 80 | 80 to 100 |  |
